Data from patent US4774078A, “Stable antiplaque dentifrice based on hexetidine, zinc ion and fluoride” (Colgate-Palmolive Company, priority 1986, dated 1988).
Read-outs that look alike come from different tables or passages of the source.

Tests used:
[1] = system: Strep mutans; test: MIC (minimum inhibitory concentration) with Strep. mutans; assay type: cell-based; conditions: active ingredient alone, water/alcohol/propylene glycol mixture, total bacterial inhibition
Description: Hexetidine is a broad-spectrum, water-insoluble antibacterial, having the chemical formula [drawing 1] 5-amino-1,3-bis(2 ethylhexyl)-5-methyl-hexahydropyrimidine. It has been used as an antibacterial agent in antiplaque and antigingivitis oral compositions as previously discussed. However, hexetidine is a bitter-tasting chemical, thereby limiting its use to low levels in order to minimize its bitter taste, which in turn limits its therapeutic activity.
Table I gives the MIC (minimum inhibitory concentration) results with Strep. mutans.
All the active ingredients (AI) are in water/alcohol/propylene glycol mixtures.
The FIC (Fractional Inhibitory Concentration), has been calculated from the MIC data for each ratio.
A minimum concentration of 0.60 ppm hexetidine alone is needed for total bacterial inhibition, and a minimum concentration of 40 ppm of zinc++ alone is required for total bacterial inhibition; whereas a concentration of 0.12 ppm hexetidine in combination with 0.12 ppm zinc++ effects total bacterial inhibition. This increase in the antibacterial activity of the hexetidine due to the presence of the zinc++ reduces the amount necessary to produce a therapeutic effect, and this minimizes the bitter taste associated with hexetidine.

[2] = cited from earlier work
[3] = Active ingredient stability of dentifrice after aging 9 weeks at 49° C.

Molecule | MIC [1] [ppm] | MIC ([1]; listed as zinc++) [ppm] | MIC ([1]; Streptococcus mutans, read-out: MIC) [µg/mL] | water solubility [2] | % Available After Aging ([3]; in dentifrices of Examples 1 and 2 (sodium lauryl sulfate), pH 5-6, 90720 min) [%] | % Available After Aging ([3]; in dentifrices of Examples 3 and 4 (polyoxyethylene (20) sorbitan monoisostearate), pH 5.0-6.0, 90720 min) [%]
Zinc++ | 40.00 | 40 | – | – | – | –
CCCCC(CC)CN1CN(CC(CC)CCCC)CC(C)(N)C1 (stereo not shown) [Hexetidine, 5-amino-1,3-bis(2 ethylhexyl)-5-methyl-hexahydropyrimidine] | 0.60 | – | 0.6 | water-insoluble | 65 | 92
